According to publication PMC9146984, “A Novel Proline-Rich Cathelicidin from the Alpaca Vicugna pacos with Potency to Combat Antibiotic-Resistant Bacteria: Mechanism of Action and the Functional Role of the C-Terminal Region” (Membranes, 2022):
Values after ≈ are worked out from the molar mass of the structure shown. Where a SMILES comes first, the peptide text is derived from it.

Tests used:
P. aeruginosa PAO1 = assay: Antimicrobial assay (MIC); format: cell-based, Pseudomonas aeruginosa; settings: Mueller-Hinton broth supplemented with 0.9% NaCl
Procedure: (§1) The reduction of resazurin to resorufin was measured.

P. aeruginosa ATCC 27853 = assay: Antimicrobial assay (MIC); format: cell-based, Pseudomonas aeruginosa; settings: Mueller-Hinton broth supplemented with 0.9% NaCl
Procedure: as §1

[1] = test system: VicBac[1–22]-resistant E. coli MDR 1057 strain; settings: Mueller-Hinton broth supplemented with 0.9% NaCl; strain selected 14 days with VicBac[1-22]; cross-resistance
Procedure: (§2) Bacterial test cultures were grown in the Mueller-Hinton broth (MH; Sigma, St. Louis, MO, USA) at 37 °C to mid-log phase and then diluted with the 2× MH medium supplemented with 1.8% NaCl or without salt so that to reach a final cell concentration of 10^6 CFU/mL. 50 µL of the obtained bacterial suspension were added to aliquots of 50 µL of the peptide solutions serially diluted with sterilized 0.1% bovine serum albumin (BSA) in 96-well flat-bottom polystyrene microplates (Eppendorf #0030730011, Hamburg, Germany). […] To verify MIC values, the respiratory activity of the bacteria was determined. Briefly, 20 µL of 0.1 mg/mL resazurin (a redox indicator; Sigma, St. Louis, MO, USA) was added to the wells after 24 h of incubation, and the plate was incubated for an additional two hours. The reduction of resazurin to resorufin was measured. […] The results were expressed as the median values determined based on at least three independent experiments performed in triplicate.
(§3) Resistance induction experiments were performed using the previously described method. Briefly, on day one, the overnight culture of wild-type bacteria was diluted with the 2× MH broth supplemented with 1.8% NaCl to reach a final cell concentration of 10^6 CFU/mL. 50 µL of the obtained bacterial suspension were added to aliquots of 50 µL of the peptide solutions serially diluted with the sterilized 0.1% BSA in 96-well flat-bottom polystyrene microplates. After incubation for 20 ± 2 h at 37 °C and 950 rpm, MICs were determined as described above. For each subsequent daily transfer, 2–4 μL of the inoculum taken from the first well containing a sub-inhibitory drug concentration were diluted with 2 mL of the fresh 2× MH broth supplemented with 1.8% NaCl. […] 14 repeated passages in the presence of antimicrobial agents were made for each bacterial strain during the experiment. Bacteria that grew at the highest concentration of AMPs on the final day were passaged a further 3 times on drug-free agar plates before determining the final MIC value.

E. coli MDR CI 1057 = test system: E. coli MDR CI 1057
Procedure: as §2, §3

P. mirabilis XDR CI 3423 = assay: Antimicrobial assay (MIC); format: cell-based; settings: Mueller-Hinton broth supplemented with 0.9% NaCl
Procedure: as §1

E. cloacae XDR CI 4172 = assay: Antimicrobial assay (MIC); format: cell-based; settings: Mueller-Hinton broth supplemented with 0.9% NaCl
Procedure: as §1

[2] = test system: K. pneumoniae ATCC 700603; assay: Antimicrobial assay (MIC); format: cell-based; settings: Mueller-Hinton broth supplemented with 0.9% NaCl
Procedure: as §1

A. baumannii XDR CI 2675 = assay: Antimicrobial assay (MIC); format: cell-based; settings: Mueller-Hinton broth supplemented with 0.9% NaCl
Procedure: as §1

[3] = test system: Mycobacterium phlei Ac-1291; assay: Antimicrobial assay (MIC); format: cell-based; settings: Mueller-Hinton broth supplemented with 0.9% NaCl
Procedure: as §1

[4] = test system: B. licheniformis VKM B511; assay: Antimicrobial assay (MIC); format: cell-based; settings: Mueller-Hinton broth supplemented with 0.9% NaCl
Procedure: as §1

[5] = test system: E. coli BL21 (DE3) Star cell extract, coupled transcription/translation of EGFP; assay: In vitro transcription/translation inhibition assay (cell-free EGFP synthesis); format: biochemical, Escherichia coli; settings: EGFP fluorescence, 2 h, 30 °C; at least two independent experiments in triplicate; read-out: IC50, inhibition of in vitro protein synthesis in the E. coli cell-free system
Procedure: To investigate the effect of cathelicidins on the coupled transcription/translation process, the peptides were added to a cell-free protein synthesis (CFPS) reaction mix with a plasmid encoding enhanced green fluorescent protein (EGFP) variant (F64L, S65T, Q80R, F99S, M153T, and V163A) under control of the T7 promoter as described previously with some modifications. Briefly, the peptides were dissolved in 0.1% BSA in water. Bac7[1–22] was used as a positive control inhibitor. The fluorescence of the sample without inhibitor was set as the 100% value. The reaction proceeded for 2 h in 96-well v-bottom black polystyrene microplates in a plate shaker (30 °C, 1000 rpm). The fluorescence of the synthesized EGFP was measured with the microplate reader AF2200 (λExc = 488 nm, λEm = 510 nm; Eppendorf, Hamburg, Germany). The experimental data were obtained from at least two independent experiments performed in triplicate. Non-linear regression curves were generated using GraphPad Prism v.8.0.1 (GraphPad Software Inc., San Diego, CA, USA).

E. coli ML-35p = assay: Antimicrobial assay (MIC); format: cell-based, Escherichia coli; settings: Mueller-Hinton broth supplemented with 0.9% NaCl
Procedure: as §1

E. coli CI 214 = assay: Antimicrobial assay (MIC); format: cell-based, Escherichia coli; settings: Mueller-Hinton broth supplemented with 0.9% NaCl
Procedure: as §1

E. coli MDR 1057 = settings: MH broth with 0.9% NaCl, 14 passages with the same agent (VicBac[1–22]: after 10 passages)
Procedure: Resistance induction experiments were performed using the previously described method. Briefly, on day one, the overnight culture of wild-type bacteria was diluted with the 2× MH broth supplemented with 1.8% NaCl to reach a final cell concentration of 10^6 CFU/mL. 50 µL of the obtained bacterial suspension were added to aliquots of 50 µL of the peptide solutions serially diluted with the sterilized 0.1% BSA in 96-well flat-bottom polystyrene microplates. After incubation for 20 ± 2 h at 37 °C and 950 rpm, MICs were determined as described above. For each subsequent daily transfer, 2–4 μL of the inoculum taken from the first well containing a sub-inhibitory drug concentration were diluted with 2 mL of the fresh 2× MH broth supplemented with 1.8% NaCl. […] Bacteria that grew at the highest concentration of AMPs on the final day were passaged a further 3 times on drug-free agar plates before determining the final MIC value.

CC[C@H](C)[C@H](NC(=O)[C@H](CCCNC(=N)N)NC(=O)[C@@H](N)CCCNC(=N)N)C(=O)N[C@@H](CCCNC(=N)N)C(=O)N[C@@H](CCCNC(=N)N)C(=O)N1CCC[C@H]1C(=O)N[C@@H](CCCNC(=N)N)C(=O)N[C@@H](CC(C)C)C(=O)N1CCC[C@H]1C(=O)N[C@@H](CCCNC(=N)N)C(=O)N1CCC[C@H]1C(=O)N[C@@H](CCCNC(=N)N)C(=O)N[C@H](C(=O)N1CCC[C@H]1C(=O)N[C@@H](CCCNC(=N)N)C(=O)N1CCC[C@H]1C(=O)N[C@@H](CCCNC(=N)N)C(=O)N[C@H](C(=O)N1CCC[C@H]1C(=O)N1CCC[C@H]1C(=O)N[C@@H](CCCNC(=N)N)C(=O)N[C@H](C(=O)N1CCC[C@H]1C(=O)N[C@@H](CCCNC(=N)N)C(=O)N1CCC[C@H]1C(=O)N[C@H](C(=O)N[C@@H](CC(C)C)C(=O)N1CCC[C@H]1C(=O)N1CCC[C@H]1C(=O)N1CCC[C@H]1C(=O)N[C@@H](CCCNC(=N)N)C(=O)N[C@H](C(=O)N1CCC[C@H]1C(=O)N[C@@H](Cc1ccccc1)C(=O)N1CCC[C@H]1C(=O)N[C@@H](CCCNC(=N)N)C(=O)N[C@@H](Cc1ccccc1)C(=O)N1CCC[C@H]1C(=O)N[C@@H](CCCNC(=N)N)C(N)=O)C(C)C)C(C)C)[C@@H](C)CC)[C@@H](C)CC)C(C)C [VicBac[1-39]] (H-RRIRRPRLPRPRVPRPRIPPRIPRPVLPPPRVPFPRFPR-NH2; N-terminus assumed)
MIC, P. aeruginosa PAO1 (P. aeruginosa PAO1): 8 µM (≈ 38.5 µg/mL) | MIC, P. aeruginosa ATCC 27853 (P. aeruginosa ATCC 27853): 4 µM (≈ 19.3 µg/mL) | Minimum inhibitory concentration E.coli MDR 1057 14 days with VicBac [1-22] [1]: 2 µM | MIC, E. coli MDR CI 1057 (E. coli MDR CI 1057; Mueller-Hinton broth supplemented with 0.9% NaCl (Figure 3A)): 1 µM (≈ 4.82 µg/mL) | Minimum inhibitory concentration E.coli MDR 1057 14 days w/o AMP (E. coli MDR CI 1057; Mueller-Hinton broth supplemented with 0.9% NaCl, after 14 passages without antimicrobial agents): 1 µM (≈ 4.82 µg/mL) | Minimum inhibitory concentration E.coli MDR 1057 0 days (E. coli MDR CI 1057; Mueller-Hinton broth supplemented with 0.9% NaCl, before passages): 1 µM (≈ 4.82 µg/mL) | MIC, P. mirabilis XDR CI 3423 (P. mirabilis XDR CI 3423): 8 µM (≈ 38.5 µg/mL) | MIC, E. cloacae XDR CI 4172 (E. cloacae XDR CI 4172): 4 µM (≈ 19.3 µg/mL) | MIC, K. pneumoniae ATCC 700603 [2]: 2 µM (≈ 9.64 µg/mL) | MIC, A. baumannii XDR CI 2675 (A. baumannii XDR CI 2675): 8 µM (≈ 38.5 µg/mL) | MIC, Mycobacterium phlei Ac-1291 [3]: 0.5 µM (≈ 2.41 µg/mL) | MIC, B. licheniformis VKM B511 [4]: 1 µM (≈ 4.82 µg/mL) | IC50 [5]: 500 nM | MIC, E. coli ML-35p (E. coli ML-35p): 0.5 µM (≈ 2.41 µg/mL) | MIC, E. coli CI 214 (E. coli CI 214): 8 µM (≈ 38.5 µg/mL) | increase in MIC value after serial passage selection (E. coli MDR 1057): did not change
